Experimental data from US20090181090A1, “Protein-Based Carrier System for Overcoming Resistance in Tumour Cells” (priority 2005, published 2009).
Converted amounts (≈) assume the structure as drawn. Where two headings read alike, the source gives them in different places.

Tests used:
UKF-NB3 Par. cells = assay: MTT cytotoxicity test, parental neuroblastoma cells; assay type: cell-based; conditions: Homo sapiens, UKF-NB-3, 120 h, 5 days incubation
UKF-NB3 Dxr-R. cells = assay: MTT cytotoxicity test, doxorubicin-resistant neuroblastoma cells; assay type: cell-based, human; conditions: 5 days incubation
Protocol: To test the cytotoxicity of the doxorubicin nanoparticles (Dxr-NP) produced, as compared to a doxorubicin solution (Dxr-Soln) and a liposomal doxorubicin preparation (CAELYX®), the following cell lines were used:
doxorubicin-resistant cells of the human neuroblastoma cell line of the Universitätsklinikum Frankfurt (UKF-NB3 Dxr-R.)
To determine the cytotoxicity, the MTT test was used. In this test the viability of the cells in the presence of different concentrations of a substance is determined and is then compared with a cell control. From the results, the IC50 value (inhibitory concentration 50), i.e. the concentration of a substance at which 50% of the cells die, can be calculated. […] After dissolving the crystals with SDS/DMF solution, the colour intensity can be measured photometrically. […]
One column of the wells contained pure medium and corresponded to the blank value; in a second column the cells for the growth control (100% value) were cultivated. […] After a further incubation at 37° C. overnight, the colour crystals had dissolved completely, and the colour intensity in each well was measured photometrically at […]. By subtracting the blank value from the measured values and with reference to the control, the cell viability can be expressed in percent.

COc1cccc2c1C(=O)c1c(O)c3c(c(O)c1C2=O)C[C@@](O)(C(=O)CO)C[C@@H]3O[C@H]1C[C@H](N)[C@H](O)[C@H](C)O1 [Dxr-Soln, doxorubicin]
IC50 (UKF-NB3 Par. cells): 0.0016 µg/mL (≈ 0.00294 µM)
IC50 (UKF-NB3 Dxr-R. cells): 0.0535 µg/mL (≈ 0.0984 µM)
IC50 (UKF-NB3 Dxr-R. cells; Homo sapiens, UKF-NB-3, 120 h, read-out: IC50): 0.0535 µg/mL (≈ 0.0984 µM)
